Measured values: EP0025288A1, “Derivatives of monic acid, processes for their preparation, compositions containing them and their preparation” (priority 1979, dated 1981)
In brackets after ≈: the same amount, converted by molar mass.

Assays:
Type in all cases: cell-based
S typhimurium S18 = assay: MIC, veterinary bacteria; conditions: veterinary bacteria (Table 2), read-out: MIC
E coli E1 = assay: MIC, veterinary bacteria; conditions: veterinary bacteria (Table 2), read-out: MIC
[1] = tested on: M. suipneumoniae ATCC 25095; assay: MIC, anti-mycoplasmal, Friis broth solidified with 0.9% agarose; conditions: Mesomycoplasma hyopneumoniae, ATCC25095, 144 h, inoculum 10^3 to 10^5 C.F.U., 6 days incubation at 37°C, read-out: in vitro MIC
[2] = tested on: M. hyosynoviae ATCC 25591; assay: as above; conditions: 144 h, inoculum 10^3 to 10^5 C.F.U., 6 days incubation at 37°C, read-out: in vitro MIC
M. suipneumoniae TAM 6N = assay: as above; conditions: Mesomycoplasma hyopneumoniae, TAM6N, 144 h, inoculum 10^3 to 10^5 C.F.U., 6 days incubation at 37°C, read-out: in vitro MIC
[3] = tested on: M. bovigenitalium ATCC 14173; assay: as above; conditions: 144 h, inoculum 10^3 to 10^5 C.F.U., 6 days incubation at 37°C, read-out: in vitro MIC
[4] = tested on: M. suipneumoniae PW/C/210; assay: as above; conditions: Mesomycoplasma hyopneumoniae, 144 h, inoculum 10^3 to 10^5 C.F.U., 6 days incubation at 37°C, read-out: in vitro MIC
M. hyorhinis ATCC 25021 = assay: as above; conditions: Mesomycoplasma hyorhinis, ATCC25021, 144 h, inoculum 10^3 to 10^5 C.F.U., 6 days incubation at 37°C, read-out: in vitro MIC
Staph aureus Oxford = assay: MIC, veterinary bacteria; conditions: Staphylococcus aureus, veterinary bacteria (Table 2), read-out: MIC
M. suipneumoniae HK(2) = assay: MIC, anti-mycoplasmal, Friis broth solidified with 0.9% agarose; conditions: Mesomycoplasma hyopneumoniae, 144 h, inoculum 10^3 to 10^5 C.F.U., 6 days incubation at 37°C, read-out: in vitro MIC
M. suipneumoniae MS 16 = assay: as above; conditions: Mesomycoplasma hyopneumoniae, MS16, 144 h, inoculum 10^3 to 10^5 C.F.U., 6 days incubation at 37°C, read-out: in vitro MIC
M. pneumoniae ATCC 15492 = assay: as above; conditions: Mycoplasmoides pneumoniae, ATCC15492, 144 h, inoculum 10^3 to 10^5 C.F.U., 6 days incubation at 37°C, read-out: in vitro MIC
[5] = tested on: Corynebacterium pyogenes CY1; assay: MIC, veterinary bacteria; conditions: veterinary bacteria (Table 2), read-out: MIC
S dublin S7 = assay: MIC, veterinary bacteria; conditions: veterinary bacteria (Table 2), read-out: MIC
M. suipneumoniae NB12 = assay: MIC, anti-mycoplasmal, Friis broth solidified with 0.9% agarose; conditions: Mesomycoplasma hyopneumoniae, 144 h, inoculum 10^3 to 10^5 C.F.U., 6 days incubation at 37°C, read-out: in vitro MIC
Past multocida PA1 = assay: MIC, veterinary bacteria; conditions: veterinary bacteria (Table 2), read-out: MIC
M. dispar NCTC 10125 = assay: MIC, anti-mycoplasmal, Friis broth solidified with 0.9% agarose; conditions: 144 h, inoculum 10^3 to 10^5 C.F.U., 6 days incubation at 37°C, read-out: in vitro MIC
[6] = tested on: Staph aureus B4 (pen resis); assay: MIC, veterinary bacteria; conditions: Staphylococcus aureus, veterinary bacteria (Table 2), read-out: MIC
M. suipneumoniae UCD 1 = assay: MIC, anti-mycoplasmal, Friis broth solidified with 0.9% agarose; conditions: Mesomycoplasma hyopneumoniae, UCD1, 144 h, inoculum 10^3 to 10^5 C.F.U., 6 days incubation at 37°C, read-out: in vitro MIC
[7] = tested on: Staph aureus 152 (pen sens); assay: MIC, veterinary bacteria; conditions: Staphylococcus aureus, veterinary bacteria (Table 2), read-out: MIC
Past Haemolytica PA5 = assay: MIC, veterinary bacteria; conditions: veterinary bacteria (Table 2), read-out: MIC
E coli NCTC 10418 = assay: MIC, veterinary bacteria; conditions: veterinary bacteria (Table 2), read-out: MIC
[8] = tested on: Strep suis (group D) SPS11; assay: MIC, veterinary bacteria; conditions: veterinary bacteria (Table 2), read-out: MIC
[9] = tested on: Erysipelothrix rhusiopathiae NCTC 8163; assay: MIC, veterinary bacteria; conditions: NCTC8163, veterinary bacteria (Table 2), read-out: MIC
[10] = tested on: M. suipneumoniae NCTC 10110; assay: MIC, anti-mycoplasmal, Friis broth solidified with 0.9% agarose; conditions: Mesomycoplasma hyopneumoniae, NCTC10110, 144 h, inoculum 10^3 to 10^5 C.F.U., 6 days incubation at 37°C, read-out: in vitro MIC
Bord bronchiseptica BO8 = assay: MIC, veterinary bacteria; conditions: veterinary bacteria (Table 2), read-out: MIC
M. suipneumoniae JF 435 = assay: MIC, anti-mycoplasmal, Friis broth solidified with 0.9% agarose; conditions: Mesomycoplasma hyopneumoniae, JF435, 144 h, inoculum 10^3 to 10^5 C.F.U., 6 days incubation at 37°C, read-out: in vitro MIC
Strep uberis SPU1 = assay: MIC, veterinary bacteria; conditions: veterinary bacteria (Table 2), read-out: MIC
M. suipneumoniae LABER = assay: MIC, anti-mycoplasmal, Friis broth solidified with 0.9% agarose; conditions: Mesomycoplasma hyopneumoniae, 144 h, inoculum 10^3 to 10^5 C.F.U., 6 days incubation at 37°C, read-out: in vitro MIC
M. suipneumoniae Str. 11 = assay: as above; conditions: Mesomycoplasma hyopneumoniae, 144 h, inoculum 10^3 to 10^5 C.F.U., 6 days incubation at 37°C, read-out: in vitro MIC
Bord bronchisptica BO9 = assay: MIC, veterinary bacteria; conditions: veterinary bacteria (Table 2), read-out: MIC
M. hyorhinis ATCC 23234 = assay: MIC, anti-mycoplasmal, Friis broth solidified with 0.9% agarose; conditions: Mesomycoplasma hyorhinis, ATCC23234, 144 h, inoculum 10^3 to 10^5 C.F.U., 6 days incubation at 37°C, read-out: in vitro MIC
M. gallisepticum S6 = assay: as above; conditions: Mycoplasmoides gallisepticum, 144 h, inoculum 10^3 to 10^5 C.F.U., 6 days incubation at 37°C, read-out: in vitro MIC
M. bovis NCTC 10131 = assay: microbe, parasite or virus in culture; conditions: NCTC10131, 144 h, read-out: in vitro MIC
Strep dysgalaciae SPD1 = assay: MIC, veterinary bacteria; conditions: veterinary bacteria (Table 2), read-out: MIC
Strep agalactiae SPA1 = assay: MIC, veterinary bacteria; conditions: veterinary bacteria (Table 2), read-out: MIC
[11] = tested on: M. suipneumoniae J2206/183b; assay: MIC, anti-mycoplasmal, Friis broth solidified with 0.9% agarose; conditions: Mesomycoplasma hyopneumoniae, 144 h, inoculum 10^3 to 10^5 C.F.U., 6 days incubation at 37°C, read-out: in vitro MIC
Past multocida PA2 = assay: MIC, veterinary bacteria; conditions: veterinary bacteria (Table 2), read-out: MIC

CC(=CC(=O)OC1CCCC(=O)CCC1)CC1OCC(CC2OC2C(C)C(C)O)C(O)C1O (centres unmarked) [Example 10, Cyclooctan-5-onyl monate A]
MIC (S typhimurium S18): > 80 µg/mL
MIC (E coli E1): > 80 µg/mL
MIC [1]: 1 µg/mL (≈ 2.13 µM)
MIC [2]: 0.25 µg/mL (≈ 0.534 µM)
MIC (M. suipneumoniae TAM 6N): 2.5 µg/mL (≈ 5.34 µM)
MIC [3]: 0.05 µg/mL (≈ 0.107 µM)
MIC [4]: 1 µg/mL (≈ 2.13 µM)
MIC (M. hyorhinis ATCC 25021): 1 µg/mL (≈ 2.13 µM)
MIC (Staph aureus Oxford): 2.5 µg/mL (≈ 5.34 µM)
MIC (M. suipneumoniae HK(2)): 2.5 µg/mL (≈ 5.34 µM)
MIC (M. suipneumoniae MS 16): 1 µg/mL (≈ 2.13 µM)
MIC (M. pneumoniae ATCC 15492): 10 µg/mL (≈ 21.3 µM)
MIC [5]: 80 µg/mL (≈ 171 µM)
MIC (S dublin S7): > 80 µg/mL
MIC (M. suipneumoniae NB12): 2.5 µg/mL (≈ 5.34 µM)
MIC (Past multocida PA1): 40 µg/mL (≈ 85.4 µM)
MIC (M. dispar NCTC 10125): 0.5 µg/mL (≈ 1.07 µM)
MIC [6]: 2.5 µg/mL (≈ 5.34 µM)
MIC (M. suipneumoniae UCD 1): 1 µg/mL (≈ 2.13 µM)
MIC [7]: 2.5 µg/mL (≈ 5.34 µM)
MIC (Past Haemolytica PA5): 40 µg/mL (≈ 85.4 µM)
MIC (E coli NCTC 10418): > 80 µg/mL
MIC [8]: 80 µg/mL (≈ 171 µM)
MIC [9]: 80 µg/mL (≈ 171 µM)
MIC [10]: 1 µg/mL (≈ 2.13 µM)
MIC (Bord bronchiseptica BO8): > 80 µg/mL
MIC (M. suipneumoniae JF 435): 2.5 µg/mL (≈ 5.34 µM)
MIC (Strep uberis SPU1): 1.25 µg/mL (≈ 2.67 µM)
MIC (M. suipneumoniae LABER): 1 µg/mL (≈ 2.13 µM)
MIC (M. suipneumoniae Str. 11): 1 µg/mL (≈ 2.13 µM)
MIC (Bord bronchisptica BO9): 80 µg/mL (≈ 171 µM)
MIC (M. hyorhinis ATCC 23234): 1 µg/mL (≈ 2.13 µM)
MIC (M. gallisepticum S6): > 10 µg/mL
MIC (M. bovis NCTC 10131): 0.025 µg/mL (≈ 0.0534 µM)
MIC (Strep dysgalaciae SPD1): 5 µg/mL (≈ 10.7 µM)
MIC (Strep agalactiae SPA1): 10 µg/mL (≈ 21.3 µM)
MIC [11]: 2.5 µg/mL (≈ 5.34 µM)
MIC (Past multocida PA2): 1.25 µg/mL (≈ 2.67 µM)
